Measurements: patent US20250206757A1 (GASHERBRUM BIO, INC., priority 2022, published 2025)

Molecular target: GLP-1 Receptor (Homo sapiens, UniProt P43220)
Assay: GLP-1R agonist cAMP stimulation assay (HEK293/GLP1R/CRE-LUC cells, HTRF cAMP dynamic 2 kit)
Type: cell-based
Settings: HEK293/CRE-Luc cell line stably expressing the GLP-1 Receptor; 30 min incubation at 37° C.
Protocol: Activation of GLP-1 receptor is known to stimulate cyclic AMP (cAMP) production in cells which indicates primary coupling to the Gas subunit of the G protein heterotrimeric complex.
To optimize functional activity directed toward Gas coupling, a HEK293/CRE-Luc cell line developed by HDB stably expressing the GLP-1 Receptor was used. 200× concentration of compound working solutions were prepared (Agilent Technologies Bravo) with 1/2 log serial dilution in 384-well Echo LDV plate (Labcyte, Cat #LP-0200). 50 nL/well 200× concentration of compound working solutions were moved to 384-well white low volume plate (Greiner, Cat #784075) using Labcyte ECHO550. 1×10^5 cells/mL HEK293/GLP1R/CRE-LUC (HD Biosciences) cell suspensions prepared with assay buffer [DPBS containing 0.5 mM IBMX (Sigma, Cat #15879) and 0.10% BSA (GENVIEW, Cat #FA016-100g)], 10 μL cell suspensions were added to each well of previous generated assay plate which already contains 50 nL compound at 200× concentration using ThermoFisher Multidrop Combi (1000 cells/well). Seal the plate and incubate at 37° C. with 5% CO2 for 30 min.
After incubation the cAMP assay signal was generated using cAMP dynamic 2 Kit (Cisbio). 5 μL cAMP-d2 working solution was added to each well, followed with 5 μL Anti-cAMP antibody-cryptate working solution added to each well using ThermoFisher Multidrop Combi. Incubate at room temperature for 1 hour protected from light. Read the fluorescence at 665 and 615 nm with Reader PerkinElmer EnVision.

Sequence of GLP-1 Receptor (P43220 24-463): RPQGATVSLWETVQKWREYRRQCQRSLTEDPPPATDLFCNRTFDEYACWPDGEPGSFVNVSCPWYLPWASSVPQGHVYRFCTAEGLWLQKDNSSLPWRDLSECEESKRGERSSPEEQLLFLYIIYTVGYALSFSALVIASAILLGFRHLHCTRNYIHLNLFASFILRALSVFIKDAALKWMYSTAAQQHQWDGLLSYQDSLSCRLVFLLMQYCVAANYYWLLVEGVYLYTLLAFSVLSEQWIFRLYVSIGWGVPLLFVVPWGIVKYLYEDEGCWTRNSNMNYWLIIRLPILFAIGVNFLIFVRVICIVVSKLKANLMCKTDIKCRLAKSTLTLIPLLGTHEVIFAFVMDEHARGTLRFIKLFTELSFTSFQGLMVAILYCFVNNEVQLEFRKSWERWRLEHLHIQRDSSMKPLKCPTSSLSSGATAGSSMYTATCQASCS

| Structure (SMILES) | EC50 |
| --- | --- |
| N#Cc1nnc(-c2cc3nc(CN4CCc5cc(C(F)(F)F)c(NCc6ccc(Cl)cc6F)nc5C4)n(C[C@@H]4CCO4)c3cn2)[nH]1 [Compound 108, 5-{2-[(2-{[(4-chloro-2-fluorophenyl)methyl]amino}-3-(trifluoromethyl)-5,6,7,8-tetrahydro-1,7-naphthyridin-7-yl)methyl]-3-{[(2S)-oxetan-2-yl]methyl}-3H-imidazo[4,5-c]pyridin-6-yl}-4H-1,2,4-triazole-3-carbonitrile] | < 1 nM |
| O=C(O)CCn1cc(-c2cnc3c(c2)nc(CN2CCc4cc(C(F)(F)F)c(OCc5ccc(Cl)cc5F)nc4C2)n3C[C@@H]2CCO2)nn1 [Compound 99, 3-{4-[2-({2-[(4-chloro-2-fluorophenyl)methoxy]-3-(trifluoromethyl)-5,6,7,8-tetrahydro-1,7-naphthyridin-7-yl}methyl)-3-{[(2S)-oxetan-2-yl]methyl}-3H-imidazo[4,5-b]pyridin-6-yl]-1H-1,2,3-triazol-1-yl}propanoic acid] | 1 to 300 nM |
| Fc1cc(Cl)ccc1COc1nc2c(cc1C1CC1)CCN(Cc1nc3cc(-c4nnc(C(F)(F)F)[nH]4)cnc3n1C[C@@H]1CCO1)C2 [Compound 3, 2-[(4-chloro-2-fluorophenyl)methoxy]-3-cyclopropyl-7-[(3-{[(2S)-oxetan-2-yl]methyl}-6-[5-(trifluoromethyl)-4H-1,2,4-triazol-3-yl]-3H-imidazo[4,5-b]pyridin-2-yl)methyl]-5,6,7,8-tetrahydro-1,7-naphthyridine] | 1 to 300 nM |
| NC(=O)c1nnc(-c2cc3nc(CN4CCc5cc(C(F)(F)F)c(NCc6ccc(Cl)cc6F)nc5C4)n(C[C@@H]4CCO4)c3cn2)[nH]1 [Compound 107, 5-{2-[(2-{[(4-chloro-2-fluorophenyl)methyl]amino}-3-(trifluoromethyl)-5,6,7,8-tetrahydro-1,7-naphthyridin-7-yl)methyl]-3-{[(2S)-oxetan-2-yl]methyl}-3H-imidazo[4,5-c]pyridin-6-yl}-4H-1,2,4-triazole-3-carboxamide] | < 1 nM |
| Cc1ccc(COc2nc3c(cc2C(F)(F)F)CCN(Cc2nc4cc(-c5noc(=O)[nH]5)ncc4n2C[C@@H]2CCO2)C3)c(Cl)c1 [Compound 33, 3-[2-({2-[(2-chloro-4-methylphenyl)methoxy]-3-(trifluoromethyl)-5,6,7,8-tetrahydro-1,7-naphthyridin-7-yl}methyl)-3-{1[(2S)-oxetan-2-yl]methyl}-3H-imidazo[4,5-c]pyridin-6-yl]-4,5-dihydro-1,2,4-oxadiazol-5-one] | < 1 nM |

The remaining lines, values ahead:

| EC50 | Structure (SMILES) |
| --- | --- |
| < 1 nM | FC(F)c1ccc(COc2nc3c(cc2C(F)(F)F)CCN(Cc2nc4cc(-c5nnc(C(F)(F)F)[nH]5)ncc4n2C[C@@H]2CCO2)C3)cc1 [Compound 73, 2-{[4-(difluoromethyl)phenyl]methoxy}-7-[(3-{[(2S)-oxetan-2-yl]methyl}-6-[5-(trifluoromethyl)-4H-1,2,4-triazol-3-yl]-3H-imidazo[4,5-c]pyridin-2-yl)methyl]-3-(trifluoromethyl)-5,6,7,8-tetrahydro-1,7-naphthyridine] |
| < 1 nM | N#Cc1cc2c(nc1OCc1c(F)cc(Cl)cc1F)CN(Cc1nc3cc(-c4noc(=O)[nH]4)ccc3n1C[C@@H]1CCO1)CC2 [Compound 70, 2-[(4-chloro-2,6-difluorophenyl)methoxy]-7-[(1-{[(2S)-oxetan-2-yl]methyl}-5-(5-oxo-4,5-dihydro-1,2,4-oxadiazol-3-yl)-1H-1,3-benzodiazol-2-yl)methyl]-5,6,7,8-tetrahydro-1,7-naphthyridine-3-carbonitrile] |
| < 1 nM | O=c1[nH]nc(-c2cc3nc(CN4CCc5cc(C(F)(F)F)c(OCc6ccc(Cl)cc6F)nc5C4)n(C[C@@H]4CCO4)c3cn2)o1 [Compound 96, 5-[2-({2-[(4-chloro-2-fluorophenyl)methoxy]-3-(trifluoromethyl)-5,6,7,8-tetrahydro-1,7-naphthyridin-7-yl}methyl)-3-{[(2S)-oxetan-2-yl]methyl}-3H-imidazo[4,5-c]pyridin-6-yl]-2,3-dihydro-1,3,4-oxadiazol-2-one] |
